Experimental data from patent US9682982B2, “Inhibitors of adapter associated kinase 1, compositions comprising them, and methods of their use” (Lexicon Pharmaceuticals, Inc., priority 2014, dated 2017).

Columns and labels:
[1] = system: formalin-induced nociception in male C57 mice; assay: Formalin Assay (paw flinching); assay type: in vivo, mouse; conditions: male C57 mice, 1, 3, 10 and 30 mpk, given 30 minutes prior to formalin; one-way ANOVA P<0.01 dose effect; FIG. 4 and 5
Experimental: Mice were tested for nociception with Automatic Nociception Analyzers (purchased from the Ozaki lab at University of California, San Diego). A metal band was placed around the left hind paw of each mouse with superglue 30 minutes prior to testing. After the 30-minute acclimation period, 20 μl of 5% formalin was subcutaneously injected in the dorsal surface of the left hind paw. Mice were individually housed in cylindrical chambers for 45 minutes. Fresh 5% formalin solution was prepared by diluting formaldehyde (Formalde-fresh 20%, Fisher Scientific, Fair Lawn, N.J.) with distilled water. Investigatory compounds were administered 30 minutes prior to formalin injection.
A computer software recorded flinches per minute, total flinches for Phase I (acute phase=first 8 minutes), and total flinches for Phase II (tonic phase between 20-40 minutes) through an electromagnetic field. See Yaksh T L, Ozaki G, McCumber D, Rathbun M, Svensson C, Malkmus S, Yaksh M C. An automated flinch detecting system for use in the formalin nociceptive bioassay. J Appl Physiol., 2001; 90:2386-402.

[2] = system: tactile allodynia after spinal nerve ligation in mice; assay: Mouse Chung Assay (spinal nerve ligation, von Frey tactile allodynia); assay type: in vivo; conditions: P<0.0001 in RM ANOVA, FIG. 6
From the text: The compound 3-methyloxetan-3-yl-4-(3-(2-methoxypyridin-3-yl)pyrazolo[1,5-a]pyrimidin-5-yl)piperazine-1-carboxylate was studied in the Chung assay. See Chaplan S R, Bach F W, Pogrel J W, Chung J M, Yaksh T L., Quantitative assessment of tactile allodynia in the rat paw, J Neurosci Methods 1994; 53:55-63; Chung J M, Kim H K, Chung K., Segmental spinal nerve ligation model of neuropathic pain, Methods Mol Med. 2004; 99:35-45.
Wild-type hybrid (C57BL/6J-Tyr^c-Brd×129S5/SvEvBrd) male mice were between 5-7 weeks of age at the time of spinal nerve ligation by the conventional Chung protocol. Spinal nerve ligation was carried out according to the procedure devised by Kim and Chung with modifications. Briefly, mice were anesthetized with isoflurane (2% at the oxygen flow rate of […]). A skin incision (1 cm) was made 1 mm to the left of the dorsal midline, using the level of iliac crests as the mid point of the incision. […] In an initial experiment using hybrid mice, the presumptive locations of spinal nerve L5 and L6 were determined by using the sacroiliac junction as the landmark to locate L6, as previously described in SNL models in rats and mice. […] Mice were individually housed after the procedure and were monitored until complete recovery from anesthesia. […]

[3] = biological target: T1, AAK1 (full length human, NCBI accession no. NP_055726.2) (Homo sapiens, UniProt Q2M2I8); assay: P81 Filter Plate Assay; assay type: biochemical; parameters: NP_055726.2; conditions: 0.2 nM AAK1 and 2 μM ATP in 2× mixes, 33P-ATP, one hour at RT; read-out: P81 assay result (inhibition of AAK1 phosphorylation of Mu2)
Experimental: Compounds were serially diluted into a Labcyte LDV plate (Labcyte, cat #LP-0200) using a Mutiprobe (PerkinElmer) and Biomek FX (Beckman Coulter) so that the highest compound concentration was at 96 μM. Compounds were then pinged (75 nL per well) into a Greiner 384-well reaction plate (Greiner, #781076) using an ECHO 550 Liquid Handler (Labcyte). A total of 12 μl reaction buffer (IMAP buffer containing Tween and DTT, from Molecular Devices) was then added to each well of columns 1 and 13 for the negative controls and 12 μl of 2×AAK1 (0.2 nM full-length human protein, NCBI accession no. NP_055726.2) was added to the remaining wells. Enzyme was then pre-incubated with compound for 10 minutes at RT. Reactions were initiated upon Minitrak (PerkinElmer) addition of 12 μl substrate mix containing 2× Mu2 (0.2 μM, full length human protein), 2× cold ATP (2 μM), and 1.3 μCi of hot ^33P-ATP. Reactions proceeded for one hour at RT. Meanwhile, Millipore 384-well P81 filter plates (Millipore, catalog #MZPHNOW10) were placed on a plate washer (Zoom ZW, from Titertek) and pre-wet with 50 μl 1% phosphoric acid. […] The bottom of each filter plate was sealed followed by addition of 20 μl Microscint 40 to each well, sealing the top of the plates with Flashplate cover, and then waiting one hour until reading on the TopCount (PerkinElmer).

[4] = biological target: T1, AAK1 (full length human, NCBI accession no. NP_055726.2); assay: HEK281 Cell-Based Assay (phospho-mu2 Western blot in HEK293F cells transfected with AAK1 and AP2M1); parameters: HA; expressed in transfected cells; host or cells: HEK293F; conditions: 3 hours incubation, read-out: HEK281 cell-based assay IC50 (inhibition of mu2 phosphorylation)
Experimental: HEK293F cells were cultured in media containing DMEM (Gibco, cat. #11965), 10% FBS (SAFC Biosciences, cat. #12103C), 1×GPS (glutamine, penicillin and streptomycin). On day one, cells were plated on a 10 cm dish so that they are ˜80% confluent at time of transfection. Roughly 12 million cells were in a 10 cm dish at time of transfection. On day two, each dish was transfected with 48 ug DNA and 144 ul Lipofectamine 2000 (Invitrogen, cat. #11668-019). The DNA was comprised of a mixture (per 10 cm dish) containing 3 ug AAK1/HA/pIRES (full length human, NCBI accession no. NP_055726.2), 45 μg Flag/AP2MI/pcDNA (full length human), and 1.5 ml OPTI-MEM. The Lipofectamine 2000 is made up of a mixture (per 10 cm dish) containing 144 μl Lipofectamine 2000 and 1.5 ml OPTI-MEM. Each mixture was transferred to individual 15 ml tubes and incubated at RT for 5 minutes, and then the two mixes were combined and incubated at RT for 20 minutes. Growth media was then aspirated from each 10 cm plate and replaced with 10 ml of DMEM+10% FBS (no GPS). Finally, 3 ml DNA/Lipofectamine mix was added to each 10 cm dish and mix gently followed by incubate of plate overnight at 37° C. and 5% CO2.
On day three, compounds were diluted in 100% DMSO at 1000× final concentration, followed by 3-fold serial dilutions for a total of 5 concentrations tested. Four compounds were tested per 10 cm dish. […]

PC12 cells = conditions: Kuai et al. 2011; cited from earlier work
AAK1 = AAK1 (Homo sapiens, UniProt Q2M2I8); conditions: cited from earlier work
Sequence of AAK1 (Q2M2I8 whole entry, species assumed): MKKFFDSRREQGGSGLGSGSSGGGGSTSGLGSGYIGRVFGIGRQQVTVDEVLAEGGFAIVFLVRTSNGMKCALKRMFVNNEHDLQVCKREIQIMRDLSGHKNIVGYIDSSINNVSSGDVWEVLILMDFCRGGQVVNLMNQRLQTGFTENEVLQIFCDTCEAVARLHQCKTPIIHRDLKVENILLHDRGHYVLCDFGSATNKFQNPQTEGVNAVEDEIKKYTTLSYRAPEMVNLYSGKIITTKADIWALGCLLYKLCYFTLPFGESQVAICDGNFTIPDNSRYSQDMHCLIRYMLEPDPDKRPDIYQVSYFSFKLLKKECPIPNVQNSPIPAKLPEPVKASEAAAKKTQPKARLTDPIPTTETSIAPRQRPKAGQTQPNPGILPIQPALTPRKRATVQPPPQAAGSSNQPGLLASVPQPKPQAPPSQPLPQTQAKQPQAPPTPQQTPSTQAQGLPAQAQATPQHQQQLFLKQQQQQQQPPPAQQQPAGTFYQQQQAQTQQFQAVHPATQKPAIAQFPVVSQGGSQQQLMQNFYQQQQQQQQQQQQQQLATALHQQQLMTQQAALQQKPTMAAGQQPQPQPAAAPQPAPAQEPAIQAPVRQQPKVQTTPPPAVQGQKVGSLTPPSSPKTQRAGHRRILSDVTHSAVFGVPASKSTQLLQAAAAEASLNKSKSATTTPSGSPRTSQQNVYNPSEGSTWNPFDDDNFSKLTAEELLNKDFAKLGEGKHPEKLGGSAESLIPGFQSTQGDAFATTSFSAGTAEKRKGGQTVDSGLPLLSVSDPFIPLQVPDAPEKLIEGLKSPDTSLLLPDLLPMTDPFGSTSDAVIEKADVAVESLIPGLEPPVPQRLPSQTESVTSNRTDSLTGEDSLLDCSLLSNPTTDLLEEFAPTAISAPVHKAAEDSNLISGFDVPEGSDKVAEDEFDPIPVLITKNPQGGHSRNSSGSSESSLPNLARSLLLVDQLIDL

T1 sequence (Q2M2I8 1-863 isoform Q2M2I8-2): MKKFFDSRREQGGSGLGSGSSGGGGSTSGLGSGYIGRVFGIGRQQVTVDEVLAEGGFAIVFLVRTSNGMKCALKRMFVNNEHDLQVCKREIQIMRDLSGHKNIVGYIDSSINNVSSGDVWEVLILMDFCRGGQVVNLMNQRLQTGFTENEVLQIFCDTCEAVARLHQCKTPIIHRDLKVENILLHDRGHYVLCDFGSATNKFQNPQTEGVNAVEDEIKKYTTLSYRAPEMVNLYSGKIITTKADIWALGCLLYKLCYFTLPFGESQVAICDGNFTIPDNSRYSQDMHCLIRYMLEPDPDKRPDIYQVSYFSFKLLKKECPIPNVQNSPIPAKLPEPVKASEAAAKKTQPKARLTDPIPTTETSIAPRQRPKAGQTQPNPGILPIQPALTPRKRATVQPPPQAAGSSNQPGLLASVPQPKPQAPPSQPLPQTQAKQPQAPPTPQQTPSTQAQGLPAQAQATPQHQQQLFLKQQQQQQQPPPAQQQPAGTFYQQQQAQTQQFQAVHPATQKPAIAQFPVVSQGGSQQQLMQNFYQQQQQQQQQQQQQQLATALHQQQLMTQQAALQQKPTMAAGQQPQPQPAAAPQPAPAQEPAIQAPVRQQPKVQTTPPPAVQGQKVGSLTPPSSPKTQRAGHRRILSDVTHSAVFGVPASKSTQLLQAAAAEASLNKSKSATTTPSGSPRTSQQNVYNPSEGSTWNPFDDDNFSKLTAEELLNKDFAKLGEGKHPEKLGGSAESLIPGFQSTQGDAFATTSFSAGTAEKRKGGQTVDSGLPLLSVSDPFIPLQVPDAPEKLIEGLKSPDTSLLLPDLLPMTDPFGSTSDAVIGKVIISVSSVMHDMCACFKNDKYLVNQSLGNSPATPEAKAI

Row | Structure (SMILES) | Formalin phase 2 (tonic phase) flinches versus vehicle [1] | Effect in the Chung assay (von Frey 50% withdraw threshold) [2] | IC50 [3] [nM] | IC50 [4] [nM] | Effect on Neuregulin-1 induced neurite outgrowth (PC12 cells) | Effect on AAK1 kinase activity (AAK1)
1 | COc1ncccc1-c1cnn2ccc(N3CCN(C(=O)OC4(C)COC4)CC3)nc12 [3-methyloxetan-3-yl-4-(3-(2-methoxypyridin-3-yl)pyrazolo[1,5-a]pyrimidin-5-yl)piperazine-1-carboxylate] | dramatic effect | dose-dependent, significantly significant effect | 0.9 | 4.7 | – | –
2 | COC(=O)[C@@]1(O)C[C@H]2O[C@]1(C)n1c3ccccc3c3c4c(c5c6ccccc6n2c5c31)C(=O)NC4 [K252a] | – | – | – | – | potentiation of Neuregulin-1 induced neurite outgrowth | inhibits AAK1 kinase activity
